Results on 1 molecule are retold here after patent US6730665B1, “Treatment of bone cancer” (Mayo Foundation for Medical Education and Research, priority 1999, dated 2004).

Test [1] relates to hFOB cells overexpressing estrogen receptor-beta (hFOB-ERβ). In words: Cell survival, viable cell count with trypan blue. Format: cell-based, human. As to conditions: 2 μM, 72 h. The protocol: MG63 and TE85 human osteosarcoma cells, and ROS 17/2.8 rat osteosarcoma cells were grown in DMEM/F12 phenol-red free medium containing 10% charcoal-stripped fetal bovine serum (FBS) and supplemented with 100 units/ml penicillin, 100 μg/ml streptomycin. Cell were incubated at 37° C. under 5% CO2 in air. Cells were plated at 5×10^4 cells per well into 24 well plates containing 1 ml of medium per well. After allowing the cells to attach overnight, media in the wells were replaced with fresh 1 ml medium. Human fetal osteoblasts (hFOB) cells and hFOB cells overexpressing estrogen receptor-alpha (hFOB-ERα) and estrogen receptor-beta (hFOB-ERβ) were grown in DMEM/F12 medium containing FBS, penicillin, streptomycin and Geneticin (300 μg/mL). The laboratory of Dr. B. L. Riggs at Mayo Clinic provided primary human osteoblast (HOB) cells. HOB cells were basically established from cancellous bone obtained as waste from orthopedic procedures and cultured as explants to generate the osteoblast-like monolayers as described by Borke et al., J. Clin. Endocrinol. Metab., 1988, 67:1299-1304. […]
Estrogen metabolites were diluted 1000 fold to give the final required concentrations in each well, and maintained for 72 hrs. […] Cell growth was measured by taking the viable cell count. At the end of metabolite treatment, cells were harvested, stained with trypan blue, and counted under a light microscope.

In a further test the test system is estrogen receptors. The note with it: cited from earlier work.
Test [2] concerns MG63 human osteosarcoma cells. Put plainly: Cell survival, viable cell count with trypan blue. It counts as cell-based. The note with it: for cell death: 72 hrs. The protocol:
(§1) MG63 and TE85 human osteosarcoma cells, and ROS 17/2.8 rat osteosarcoma cells were grown in DMEM/F12 phenol-red free medium containing 10% charcoal-stripped fetal bovine serum (FBS) and supplemented with 100 units/ml penicillin, 100 μg/ml streptomycin. Cell were incubated at 37° C. under 5% CO2 in air. Cells were plated at 5×10^4 cells per well into 24 well plates containing 1 ml of medium per well. After allowing the cells to attach overnight, media in the wells were replaced with fresh 1 ml medium. Human fetal osteoblasts (hFOB) cells and hFOB cells overexpressing estrogen receptor-alpha (hFOB-ERα) and estrogen receptor-beta (hFOB-ERβ) were grown in DMEM/F12 medium containing FBS, penicillin, streptomycin and Geneticin (300 μg/mL). The laboratory of Dr. B. L. Riggs at Mayo Clinic provided primary human osteoblast (HOB) cells. HOB cells were basically established from cancellous bone obtained as waste from orthopedic procedures and cultured as explants to generate the osteoblast-like monolayers as described by Borke et al., J. Clin. Endocrinol. Metab., 1988, 67:1299-1304. Human FOB cells and hFOB cells stably transfected with estrogen receptors (ERs) were maintained at 34° C., while all other cells were incubated at 37° C. under 5% CO2 in air.
(§2) Estrogen metabolites were diluted 1000 fold to give the final required concentrations in each well, and maintained for 72 hrs. The metabolites 2ME, 2OHE, and E2 were purchased from Sigma Chemical Company (St. Louis, Mo.). Stock solutions for each metabolite were made in 95% ethanol. Cell growth was measured by taking the viable cell count. At the end of metabolite treatment, cells were harvested, stained with trypan blue, and counted under a light microscope.
MG63 cells were treated with 0, 2, and 10 μM concentrations of 2ME in the presence or absence of 100 nM ICI for 72 hours. The cells were harvested and the viable cell counts were taken after staining with trypan blue.

In test [3] the test system is osteosarcoma cells and immortalized cell lines. In words: Cell survival, summary statement. Format: cell-based. The method, then: as §1, §2
In test [4] the test system is primary human osteoblast (HOB) cells. In words: Cell survival, viable cell count with trypan blue. It counts as cell-based. The method, then: as §1, §2
The test system of test [5] is ROS 17/2.8 rat osteosarcoma cells. In words: Cell survival, viable cell count with trypan blue. It counts as cell-based. As to conditions: 2 μM, 72 h. The method, then:
as §1, §2

Test [6] relates to TE85 human osteosarcoma cells. In words: Cell survival, viable cell count with trypan blue. It counts as cell-based. The note with it: 2 μM, 72 h. The protocol: as §1, §2
Test [7] has as its system Human fetal osteoblasts (hFOB) cells. Put plainly: Cell survival, viable cell count with trypan blue. Format: cell-based. The note with it: 2 μM, 72 h. The method, then: as §1, §2
The next test concerns MG63 cells. In words: Bone matrix protein mRNA levels by northern blot. It counts as cell-based, human. The note with it: 10 μM. The method, then: Time course effects of 2ME on steady-state mRNA levels for bone matrix proteins were determined. MG63 cells in triplicate cultures were treated with 10 μM 2ME. Cells were harvested at the end of 0, 12, 24 and 72 h of treatment and used for RNA isolation. Total RNA isolated from cells was analyzed by northern blot hybridization. Ten μg of RNA sample were denatured by incubation at 52° C. in a solution of 1M glyoxal, 50% dimethyl sulfoxide, and 0.01 M NaH2PO4, and then separated in a 1% agarose gel. RNA separated in agarose gels was transferred to an Amersham Hybond nylon membrane overnight via capillary action in 20× standard saline citrate (SSC) (1×SSC=0.15 M NaCl and 0.015 M sodium citrate, pH 7.0), sodium citrate buffer. The amounts of RNA loaded and transferred were assessed by methylene blue staining of the membranes and hybridization with a [^32P]-labeled cDNA for 18S ribosomal RNA. Membranes were prehybridized for 2 h at 65° C. in buffer containing 50% deionized formamide, 10% dextran sulfate, 5×SSC, 100 μg/ml of heat-denatured single-strand salmon sperm DNA, and 2× Denhardts solution. Hybridization was conducted for 80 min in a buffer containing the above ingredients in addition to a minimum of 10^6 cpm per mL [^32P]-labeled cDNA probe. Labeled type I collagen and osteonectin cDNA were used for probing the blots. The cDNA probes were labeled by random sequence hexanucleotide primer extension using the Megaprime DNA labeling kit from Amersham (Arlington Heights, Ill.). The membranes were washed for 30 min at 45° C. in 2×SSC and for 15 to 60 min in 0.1×SSC at 45° C. The resulting radioactive mRNA bands on the blots were quantitated by Phosphorimager (Molecular Dynamics, Sunnyvale, Calif.).

The test system of a further test is female Fisher 344 rats. Put plainly: Cortical bone histomorphometry of rat tibia after oral 2ME. Format: in vivo. As to conditions: 100 mg/kg/day oral gavage 13 days, mean ± SE. The method, then:
All studies were approved by the Institutional Animal Care and Use Committee of the Mayo Clinic, Rochester, Minn. Rats were kept in plastic cages (3 per cage) under standard conditions of a 12 hr dark and 12 hr light cycle with food (Purina Laboratory rodent diet 5001, Ralston-Purina, St. Louis, Mo.) and water ad libitum. Rooms were maintained at a temperature of 24° C.
Fluorochromes were given […] tail vein.
Bone histomorphometry Histomorphometric measurements were performed with the OsteoMeasure Analysis System (OsteoMetrics, Atlanta, Ga.), which consisted of a Pentium 1133 computer coupled to a photomicroscope and image analysis system. […] The region of interest was traced, and the line lengths and area bounded by lines were calculated automatically.
Cortical bone measurements Ground transverse sections, cut at a site just proximal to the tibia-fibula synostosis, were prepared for histomorphometric analysis of cortical bone as described by Merriam, G. R. et al., Steroids, 1980, 136: 1-11. The following values were obtained as described by Turner, R. T. et al., Endocrinology, 1998, 139:3712-3720: 1) cross-sectional bone area; 2) medullary area: 3) cortical bone area: 4) periosteal perimeter; 5) endocortical perimeter; 6) periosteal bone formation rate, calculated as the area of bone between the declomycin label given at the start of the experiment and periosteal perimeter divided by the post-labeling period of 11 days; 7) periosteal mineral apposition rate, an index of osteoblast activity which is calculated as the periosteal bone formation rate divided by the label perimeter; and 8) periosteal label perimeter, an index of osteoblast number, defined as the periosteal perimeter labeled with calcein.
Statistical Analvses All values are expressed as mean±standard error (SE). Significant differences between groups were determined by Fisher's Protected Least Significant Difference post hoc test for multiple group comparisons following detection of significance by 1-way ANOVA. Significance was considered at p values ≦0.05.

SMILES strings stand for the structures.

For `COc1cc2c(cc1O)CC[C@@H]1[C@@H]2CC[C@]2(C)[C@@H](O)CC[C@@H]12` [2ME, 2-methoxyestradiol], the “cell numbers reduced to” value was 24% in test [1], 19% in test [5] and 15% in test [7]. Further, the “affinity for estrogen receptors (in words)” value in the test with estrogen receptors is recorded as “negligible affinity”. Further, the cell survival rate turned out to be 21% in [2] (2 μM, 72 h) and 9% in test [6]. In test [2] (2 μM, 72 hours), the “reduction of MG63 cell survival” value was “approximately 80%”. Also, the cell death entry in [2] (20 μM) is reported as “about 95%”; in test [2] (50 μM), about 100%. Also, the “reduction of cell survival” value in test [3] (2 μM, continuous treatment, 72 hours) came to 85%; in test [3] (20 μM), 95%. For the same molecule, the “growth of normal osteoblasts (in words)” value in [4] is given as “not affected”. In addition, the survival in test [4] (2 μM, 72 h) is reported as 89%. Further, the “decrease in osteonectin mRNA level” value in the test on MG63 cells (12 h) was determined as 50%; with MG63 cells (24 h), 38%. Also, the “decrease in type 1 collagen mRNA level” value in the test on MG63 cells (12 h) worked out at 26%; in the test on MG63 cells (24 h) it was 37%. Further, in the test on MG63 cells (72 h), the “mRNA levels for the bone matrix proteins (in words)” value is “returned to normal levels”. The “Bone Formation Rate” value with female Fisher 344 rats (cortical (periosteal) bone) was found to be 5.32 ± 0.47 mm^2 × 10^−3/day. The “Mineral Apposition Rate” value with female Fisher 344 rats (cortical (periosteal) bone) is recorded as 1.34 ± 0.06 μm/day. Further, the “Cortical Area” value in the test with female Fisher 344 rats (cortical bone, tibia) came out at 2.28 ± 0.03. In the test with female Fisher 344 rats (cortical bone, tibia), this molecule yielded a Cross-sectional area of 2.98 ± 0.04 mm^2. In addition, in the test on female Fisher 344 rats (cortical bone, tibia), the “Medullary Area” value turned out to be 0.70 ± 0.02 mm^2.
